Values of other authors in patent publication US6872734B2, “Use of tiagabine for treatment of diabetic neuropathy and migraine” (Abbott Laboratories, priority 2000, dated 2005).

System: GABA uptake
Conditions: for inhibition of GABA uptake: according to J. Pharm. Exp. Therap., 228 (1984), 109

| Structure (SMILES) | GABA uptake inhibitory properties (acid and salts thereof, cf. U.S. Pat. No. 5,010,090) | inhibition of GABA uptake |
| --- | --- | --- |
| Cc1ccsc1C(=CCCN1CCC[C@@H](C(=O)O)C1)c1sccc1C [(R)-N-[4,4-Bis(3-methyl-2-thienyl)-3-butenyl]nipecotic acid] | effective GABA uptake inhibitory compounds |  |
| O=C(O)C1CCCN(CCC=C(c2ccccc2)c2ccccc2)C1 (stereo not shown) [SK&F 89976A, N-(4,4-diphenyl-3 butenyl)nipecotic acid] |  | active inhibitors of GABA uptake |
| O=C(O)C1=CCCN(CCC=C(c2ccccc2)c2ccccc2)C1 [SK&F 100330A, N-(4,4-diphenyl-3-butenyl)guvacine] |  | active inhibitors of GABA uptake |
| O=C(O)C1CCCN(CCC=C(c2ccccc2)c2cccs2)C1 (stereo not shown) [SK&F 100604J, N-(4-phenyl-4-(2-thienyl)-3-butenyl)nipecotic acid] |  | active inhibitors of GABA uptake |
